Reference: US20260265190A1, “AROMATIC COMPOUNDS FOR USE AS PROTEIN PHOSPHATASE 2A (PP2A) MODULATORS” (RAPPTA THERAPEUTICS OY, priority 2022, published 2026)

Tested on: LNCaP cells
Assay: Cell viability assay (MTS), LNCaP cell line
Format: cell-based
Conditions: Homo sapiens, 48 hours
Method: LNCaP cell line was used for the cell viability assay. LNCaP cells were plated in 96-well plates at a density of 5000 cells per well. After 24 hours of plating, the cells were treated with increasing doses of compound (e.g., compounds 1-38) ranging from 1 μM to 80 μM. Relative cell numbers were analyzed after 48 hours using 3-(4,5-dimethylthiazol-2-yl)-5-(3-carboxymethoxyphenyl)-2-(4-sulfophenyl)-2H-tetrazolium (MTS) assay (Promega) according to the manufacturer's instructions.
The cell viability data was analyzed with GraphPad Prism software. The values were log transformed and analyzed with non-linear regression (curve-fit) using log (inhibitor) vs. response—variable slope (four parameters) and constraining the bottom to equal zero. Unless otherwise indicated, the GI50 values provided in Table 1 correspond to the LNCaP cell viability assays.

| Compound | GI50 [µM] |
| --- | --- |
| O=S(=O)(NC1(c2ccc(Cl)nc2)CCNCC1)c1ccc(OC(F)(F)F)cc1 [Example 3, N-(4-(6-chloropyridin-3-yl)piperidin-4-yl)-4-(trifluoromethoxy)benzenesulfonamide] | 69.9 |
| O=S(=O)(NC1(c2ccccc2)CCC2(CC2)NC1)c1ccc(OC(F)(F)F)cc1 (stereo not shown) [Example 6, N-(6-phenyl-4-azaspiro[2.5]octan-6-yl)-4-(trifluoromethoxy)benzenesulfonamide] | 57.5 |
| CN(C)CC(NS(=O)(=O)c1ccc(Oc2cccc(C(F)(F)F)c2)cc1)c1ccc(Cl)c(Cl)c1 (stereo not shown) [Example 28, N-(1-(3,4-dichlorophenyl)-2-(dimethylamino)ethyl)-4-(3-(trifluoromethyl)phenoxy)benzenesulfonamide] | 14.4 |
| O=S(=O)(NC1(c2cc(Cl)ncc2Cl)CCNCC1)c1ccc(OC(F)(F)F)cc1 [Example 9, N-(4-(2,5-dichloropyridin-4-yl)piperidin-4-yl)-4-(trifluoromethoxy)benzenesulfonamide] | 28.8 |
| CNc1cc(S(=O)(=O)NC2(c3ccc(Cl)cc3)CCNCC2)ccc1OC(F)(F)F [Example 8, N-(4-(4-chlorophenyl)piperidin-4-yl)-3-(methylamino)-4-(trifluoromethoxy)benzenesulfonamide] | 25.2 |
| O=C(NC1(c2ccc(Cl)cc2)CCNC1)c1ccc(OC(F)(F)F)cc1 (stereo not shown) [Example 33, N-(3-(4-chlorophenyl)pyrrolidin-3-yl)-4-(trifluoromethoxy)benzamide] | 23.3 |
| CC(C)Oc1ccc(S(=O)(=O)N[C@@H](c2ccc(Cl)cc2)C2CCNCC2)cn1 [Example 16, (R)-N-((4-chlorophenyl)(piperidin-4-yl)methyl)-6-isopropoxypyridine-3-sulfonamide] | 23.4 |
| CC(C)Oc1ccc(S(=O)(=O)NC(c2cc(Cl)cc(Cl)c2)C2CCCCC2)cn1 (stereo not shown) [Example 30, N-(cyclohexyl(3,5-dichlorophenyl)methyl)-6-isopropoxypyridine-3-sulfonamide] | 22.8 |
| CC(C)Oc1ccc(S(=O)(=O)NC(CN2CCNCC2)c2ccc(Cl)cc2)cn1 (stereo not shown) [Example 22, N-(1-(4-chlorophenyl)-2-(piperazin-1-yl)ethyl)-6-isopropoxypyridine-3-sulfonamide] | 51.1 |
| O=S(=O)(N[C@H](CN1CCC[C@H](F)C1)c1ccc(F)cc1)c1ccc(OC(F)(F)F)cc1 [Example 26, N-((S)-1-(4-fluorophenyl)-2-((S)-3-fluoropiperidin-1-yl)ethyl)-4-(trifluoromethoxy)benzenesulfonamide] | 47.5 |
| CC(C)Oc1ccc(S(=O)(=O)NCC2(c3ccccc3)CC2(C)C)cn1 (stereo not shown) [Example 29, N-((2,2-dimethyl-1-phenylcyclopropyl)methyl)-6-isopropoxypyridine-3-sulfonamide] | 78.7 |
| O=S(=O)(N[C@H](CN1CC(N2CCC2)C1)c1ccc(F)cc1)c1ccc(OC(F)(F)F)cc1 [Example 27, (S)-N-(2-([1,3′-biazetidin]-1′-yl)-1-(4-fluorophenyl)ethyl)-4-(trifluoromethoxy)benzenesulfonamide] | 24.4 |
| O=S(=O)(N[C@@H](c1ccc(Cl)cc1)C1CCNCC1)c1ccc(OC(F)(F)F)cc1 [Example 13, (R)-N-((4-chlorophenyl)(piperidin-4-yl)methyl)-4-(trifluoromethoxy)benzenesulfonamide] | 10 |
| CC(C)Oc1ccc(S(=O)(=O)N[C@H](c2ccc(Cl)cc2)C2CCNCC2)cn1 [Example 17, (S)-N-((4-chlorophenyl)(piperidin-4-yl)methyl)-6-isopropoxypyridine-3-sulfonamide] | 26.4 |
| CN(C)CC(c1ccc(Cl)c(Cl)c1)n1cc(-c2ccc(OC(F)(F)F)cc2)cn1 (stereo not shown) [Example 34, 2-(3,4-dichlorophenyl)-N,N-dimethyl-2-(4-(4-(trifluoromethoxy)phenyl)-1H-pyrazol-1-yl)ethan-1-amine] | 54.6 |
| O=S(=O)(N[C@H](c1ccccc1)C1CCNCC1)c1ccc(OC(F)(F)F)cc1 [Example 12, (S)-N-(phenyl(piperidin-4-yl)methyl)-4-(trifluoromethoxy)benzenesulfonamide] | 27.1 |
